# Literature values in patent publication US4847261A, “Alkoxy cycloalkanol esters of dihydrolysergic acid having peripheral serotonin antagonists properties” (Eli Lilly and Company, priority 1988, dated 1989).
# What was measured:
# 5HT2 receptors [1] = conditions: in words; cited from earlier work
# 5HT2 receptors [2] = conditions: in words; mediated by 5HT2 receptors; cited from earlier work
compound,measurement,setting,value
"CC(O)C(C)OC(=O)[C@@H]1C[C@@H]2c3cccc4c3c(cn4C(C)C)C[C@H]2N(C)C1 (stereo partly drawn) [LY53857, 1-isopropyl-6-methyl-8β-(1-methyl-2-hydroxy)propoxycarbonyl-5R-ergoline]",peripheral serotonin antagonist activity among Garbrecht compounds,5HT2 receptors [1],most active peripheral serotonin antagonist
same,antagonism of vascular contraction to serotonin,5HT2 receptors [2],potent antagonist
